Each compound was assayed against BACE1 (Homo sapiens (Human), UniProt P56817) (assay: Cellular Aβ-lowering assay (Abeta 40 AlphaLISA)). Details: HEK293 APP cells, 18-20 hrs incubation, Aβ 40 in culture supernatants; read-out: BACE1 cell act. Aβ40, IC50.
Assay type: cell-based
Description: Cellular Aβ-Lowering Assay:
The Abeta 40 AlphaLISA Assay can be used. The HEK293 APP cells were seeded in 96 well Microtiter plates in cell culture medium (Iscove's, plus 10% (v/v) fetal bovine serum, penicillin/streptomycin) to about 80% confluency and the compounds were added at a 3× concentration in ⅓ volume of culture medium (final DMSO concentration was kept at 1% v/v). After 18-20 hrs incubation at 37° C. and 5% CO2 in a humidified incubator, the culture supernatants were harvested for the determination of Aβ 40 concentrations using Perkin-Elmer Human Amyloid beta 1-40 (high specificity) Kit (Cat#AL275C).
In a Perkin-Elmer White Optiplate-384 (Cat#6007290), 2 ul culture supernatants were combined with 2 μl of a 10× AlphaLISA Anti-hAβAcceptor beads+Biotinylated Antibody Anti-Aβ 1-40 Mix (50 μg/mL/5 nM). After 1 hour room temperature incubation, 16 μl of a 1.25× preparation of Streptavidin (SA) Donor beads (25 μg/mL) were added and incubated for 30 minutes in the Dark. Light Emission at 615 nm was then recorded using EnVision-Alpha Reader. Levels of Aβ 40 in the culture supernatants were calculated as percentage of maximum signal (cells treated with 1% DMSO without inhibitor). The IC50 values were calculated using the Excel XLfit software.

BACE1, sequence (P56817 46-501): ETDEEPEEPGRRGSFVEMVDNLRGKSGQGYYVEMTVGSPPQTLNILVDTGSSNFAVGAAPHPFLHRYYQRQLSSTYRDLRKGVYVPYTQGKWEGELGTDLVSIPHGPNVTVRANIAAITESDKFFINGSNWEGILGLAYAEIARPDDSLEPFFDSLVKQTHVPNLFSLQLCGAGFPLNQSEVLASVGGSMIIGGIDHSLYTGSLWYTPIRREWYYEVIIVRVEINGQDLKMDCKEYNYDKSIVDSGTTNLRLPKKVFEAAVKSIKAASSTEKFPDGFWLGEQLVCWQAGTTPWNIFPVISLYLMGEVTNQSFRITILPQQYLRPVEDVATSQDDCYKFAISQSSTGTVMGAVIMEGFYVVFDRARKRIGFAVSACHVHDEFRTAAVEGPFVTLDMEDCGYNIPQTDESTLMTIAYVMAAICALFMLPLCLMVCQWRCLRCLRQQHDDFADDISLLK

Row | IC50 [nM] | SMILES
1 | 11 | C[C@@]1(c2cc(NC(=O)c3ccc(C#N)cn3)ccc2F)CSCC(N)=N1 [Example 1, (R)—N-(3-(5-amino-3-methyl-3,6-dihydro-2H-1,4-thiazin-3-yl)-4-fluorophenyl)-5-cyanopicolinamide]
2 | 8.2 | C[C@@]1(c2cc(NC(=O)c3ccc(C#N)cn3)ccc2F)CS(=O)(=O)CC(N)=N1 [Example 2, 5-Cyano-pyridine-2-carboxylic acid [3-((R)-5-amino-3-methyl-1,1-dioxo-1,2,3,6-tetrahydro-1λ6-[1,4]thiazin-3-yl)-4-fluoro-phenyl]-amide]
3 | 6.1 | C[C@@]1(c2cc(NC(=O)c3ccc(Cl)cn3)ccc2F)CS(=O)(=O)CC(N)=N1 [Example 3, 5-Chloro-pyridine-2-carboxylic acid [3-((R)-5-amino-3-methyl-1,1-dioxo-1,2,3,6-tetrahydro-1λ6-[1,4]thiazin-3-yl)-4-fluoro-phenyl]-amide]
4 | 5.7 | C[C@@]1(c2cc(NC(=O)c3ccc(OC(F)F)cn3)ccc2F)CS(=O)(=O)CC(N)=N1 [Example 4, 5-Difluoromethoxy-pyridine-2-carboxylic acid [3-((R)-5-amino-3-methyl-1,1-dioxo-1,2,3,6-tetrahydro-1λ6-[1,4]thiazin-3-yl)-4-fluoro-phenyl]-amide]
5 | 0.2 | CC1(C)C(N)=N[C@](C)(c2cc(NC(=O)c3ccc(C#N)cn3)ccc2F)CS1(=O)=O [Example 6, 5-Cyano-pyridine-2-carboxylic acid [3-((R)-5-amino-3,6,6-trimethyl-1,1-dioxo-1,2,3,6-tetrahydro-1λ6-[1,4]thiazin-3-yl)-4-fluoro-phenyl]-amide]
6 | 1 | C[C@@]1(c2cc(NC(=O)c3ccc(C#N)cn3)ccc2F)CS(=O)(=O)C2(CCCC2)C(N)=N1 [Example 9, 5-Cyano-pyridine-2-carboxylic acid [3-((R)-10-amino-8-methyl-6,6-dioxo-6λ6-thia-9-aza-spiro[4.5]dec-9-en-8-yl)-4-fluoro-phenyl]-amide]

Reference: patent US9273042B2, “5-amino[1,4]thiazines as BACE 1 inhibitors” (Hoffmann-La Roche Inc., priority 2012, dated 2016)
